# Target: hOGG1 (Homo sapiens, UniProt O15527)
# Assay: Biochemical fluorescence assay to measure enzymatic activity of hOGG1 (OGG1/APEX IC50)
# Design: Protein His-hOGG1 (12-323) was prepared; His (N); host or cells: E. coli
# Conditions: 1 nM OGG1+2 nM APEX+6 nM dsDNA (8-oxo-dG substrate); pH 7.5; RT 40 min; read-out: OGG1/APEX IC50
# Description: Biological Example 1: Biochemical Assay to Measure Enzymatic Activity of hOGG1 (OGG1/APEX IC50)
# The reported fluorescence-based assay (Donley et al ACS Chem Biol 2015; 10 (10), 2334-2343) was modified to include hAPE1/APEX1 protein. The oligonucleotide substrate with 8-oxo-dG lesion at X was prepared (LGC Biosearch, Petaluma, CA):
# Protein His-hOGG1 (12-323) was prepared by Chempartner Corporation via E. coliexpression and purification by Ni-NTA and S200 column to afford 95% purity by SDS-PAGE and SEC-HPLC analysis and hAPE1/APEX1 was purchased (SinoBiological). The assay was run in 384-well plates following the general procedure: (1) compound dilution; (2) addition of hOGG1/APEX1 to compound wells; (3) addition of DNA substrate to compound wells; (4) read Ex520/Em600 (TAMRA) fluorescence signal after 40 minutes; (5) calculate % inhibition/compound concentration; (6) calculate dose-response curve and IC50 value.
# • (1) 20 mM of compound solution was prepared in DMSO; • (2) Compounds were diluted to 10 mM in DMSO in ECHO Source plate (Labcyte PP-0200), by mixing […] DMSO; • (3) 4× dilution of compounds, for 10 points, by mixing […] DMSO; and • (4) Dispensed 150 nL compounds to assay plate (Corning 3573) in column 3-22. Dispensed 150 nL DMSO to Min and Max control wells in column 1-2 and column 23-24.
# • (1) Assay buffer was prepared (20 mM Tris pH 7.5, 100 mM KCl, 0.1% BSA, 0.01% Tween). • (2) […] buffer was added to Min control wells (Column 1-2). • (3) Enzyme was diluted to 2× with buffer (2 nM OGG1+4 nM APEX1). Dispensed […] (except Min control wells). Shake at 500 rpm at RT for 20 min. • (4) DNA substrate diluted to 2× with buffer (12 nM). Dispensed […]. Final concentration: 1 nM OGG1+2 nM APEX+6 nM dsDNA. Shake at RT for 40 min. • (5) Ex520/Em600 (TAMRA) was read.
# • (1) Calculated respective mean of Max and Min control wells. • (2) Converted data to percentage inhibition.
# Inhibition (%)=(Max mean−value)/(Max mean−Min mean)×100% • (3) Calculated sigmoidal curve (3-parameter) and IC50 (using GraphPad Prism software).
# hOGG1, sequence (O15527 12-323): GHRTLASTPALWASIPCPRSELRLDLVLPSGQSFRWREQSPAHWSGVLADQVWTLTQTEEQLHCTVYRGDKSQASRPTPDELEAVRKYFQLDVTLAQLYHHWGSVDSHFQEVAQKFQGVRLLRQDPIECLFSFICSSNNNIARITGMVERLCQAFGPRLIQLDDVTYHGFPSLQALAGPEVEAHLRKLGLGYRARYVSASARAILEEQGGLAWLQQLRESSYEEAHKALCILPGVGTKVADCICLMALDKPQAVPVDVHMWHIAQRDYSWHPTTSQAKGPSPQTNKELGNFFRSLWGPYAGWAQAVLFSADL
row,IC50,Compound
1,100 to 1000 nM,"COc1cc(NC(=O)[C@H]2CC[C@@H](N3Cc4c(ccc(N5CCC5)c4C)NC3=O)CC2)ccc1C [Example 42, (1s,4s)-4-(6-(Azetidin-1-yl)-5-methyl-2-oxo-1,2-dihydroquinazolin-3(4H)-yl)-N-(3-methoxy-4-methylphenyl)cyclohexanecarboxamide]"
2,> 10000 nM,"COc1ccc(NC(=O)[C@]2(C)CC[C@@H](N3Cc4c(C)cccc4NC3=O)CC2)cc1C#N (single isomer, unassigned) [Example 108, (1r,4r)-N-(3-cyano-4-methoxyphenyl)-1-methyl-4-(5-methyl-2-oxo-1,2-dihydroquinazolin-3(4H)-yl)cyclohexanecarboxamide]"
3,100 to 1000 nM,"COc1cc(NC(=O)[C@H]2CC[C@@H](N3Cc4c(F)cccc4NC3=O)CC2)ccc1C [Example 75, (1s,4s)-4-(5-fluoro-2-oxo-1,2-dihydroquinazolin-3(4H)-yl)-N-(3-methoxy-4-methylphenyl)cyclohexanecarboxamide]"
4,1000 to 10000 nM,"CCc1ccc(NC(=O)[C@H]2CC[C@@H](N3Cc4c(C)cccc4C3=O)CC2)cc1C [Example 127, (1s,4s)-N-(4-Ethyl-3-methylphenyl)-4-(4-methyl-1-oxoisoindolin-2-yl)cyclohexane-1-carboxamide]"
5,100 to 1000 nM,"Cc1cccc2c1CN([C@H]1CC[C@@H](C(=O)Nc3ccc(Cl)c(C#N)c3)CC1)C2=O [Example 263, (1s,4s)-N-(4-Chloro-3-cyanophenyl)-4-(4-methyl-1-oxoisoindolin-2-yl)cyclohexanecarboxamide]"
6,> 10000 nM,"COc1cc(NC(=O)C(C)N2CC(N3Cc4c(Br)cccc4C3=O)C2)ccc1C (stereo not drawn) [Example 188, 2-(3-(4-Bromo-1-oxoisoindolin-2-yl)azetidin-1-yl)-N-(3-methoxy-4-methylphenyl)propanamide]"
7,< 100 nM,"COc1cc(NC(=O)[C@H]2CC[C@@H](N3Cc4c(C)cc(CN5CC[C@@H](O)C5)cc4C3=O)CC2)ccc1C [Example 137, (1S,4s)-4-(6-(((R)-3-Hydroxypyrrolidin-1-yl)methyl)-4-methyl-1-oxoisoindolin-2-yl)-N-(3-methoxy-4-methylphenyl)cyclohexanecarboxamide]"
8,100 to 1000 nM,"Cc1cccc2c1CN([C@H]1CC[C@@H](C(=O)Nc3cc4ccccc4[nH]3)CC1)C2=O [Example 273, (1s,4s)-N-(1H-indol-2-yl)-4-(4-methyl-1-oxoisoindolin-2-yl)cyclohexanecarboxamide]"
9,< 100 nM,"COc1cc(NC(=O)[C@H]2CC[C@@H](N3Cc4c(C)cc(CNS(C)(=O)=O)cc4NC3=O)CC2)ccc1C [Example 26, (1s,4s)-N-(3-Methoxy-4-methylphenyl)-4-(5-methyl-7-(methylsulfonamidomethyl)-2-oxo-1,2-dihydroquinazolin-3(4H)-yl)cyclohexanecarboxamide]"
10,100 to 1000 nM,"COc1cc(NC(=O)[C@H]2CC[C@@H](N3Cc4c(Br)cccc4C3=O)CC2)ccc1C [Example 150, (1s,4s)-4-(4-Bromo-1-oxoisoindolin-2-yl)-N-(3-methoxy-4-methylphenyl)cyclohexanecarboxamide]"
11,1000 to 10000 nM,"COc1cc(NC(=O)[C@H]2CC[C@@H](N3Cc4c(CF)cccc4C3=O)CC2)ccc1C [Example 166, (1s,4s)-4-(4-(Fluoromethyl)-1-oxoisoindolin-2-yl)-N-(3-methoxy-4-methylphenyl)cyclohexanecarboxamide]"
12,100 to 1000 nM,"CCc1ccc(NC(=O)[C@H]2CC[C@@H](N3Cc4c(C)cccc4C3=O)CC2)cc1C#N [Example 128, (1s,4s)-N-(3-Cyano-4-ethylphenyl)-4-(4-methyl-1-oxoisoindolin-2-yl)cyclohexane-1-carboxamide]"
13,100 to 1000 nM,"COc1ccc(NC(=O)[C@H]2CC[C@@H](N3Cc4c(C)cccc4C3=O)CC2)cc1C(F)(F)F [Example 231, (1s,4s)-N-(4-Methoxy-3-(trifluoromethyl)phenyl)-4-(4-methyl-1-oxoisoindolin-2-yl)cyclohexanecarboxamide]"

# The next lines start with the molecule.
row,Compound,IC50
1,"COc1ccc(NC(=O)[C@H]2CC[C@@H](N3Cc4c(C)cccc4C3=O)CC2)cc1Cl [Example 238, (1s,4s)-N-(3-Chloro-4-methoxyphenyl)-4-(4-methyl-1-oxoisoindolin-2-yl)cyclohexanecarboxamide]",100 to 1000 nM
2,"COc1cc(NC(=O)[C@H]2CC[C@H](N3Cc4c(C)cc(COC5CNC5)cc4NC3=O)CC2)ccc1C [Example 111, (1r,4r)-4-(7-((azetidin-3-yloxy)methyl)-5-methyl-2-oxo-1,2-dihydroquinazolin-3(4H)-yl)-N-(3-methoxy-4-methylphenyl)cyclohexanecarboxamide]",> 10000 nM
3,"COc1cc(NC(=O)[C@H]2CC[C@@H](N3Cc4c(C)cc(OCCN(C)C)cc4C3=O)CC2)ccc1C [Example 209, (1s,4s)-4-(6-(2-(Dimethylamino)ethoxy)-4-methyl-1-oxoisoindolin-2-yl)-N-(3-methoxy-4-methylphenyl)cyclohexanecarboxamide]",< 100 nM
4,"COc1cc(NC(=O)N2CCC(N3Cc4c(Br)cccc4C3=O)CC2)ccc1C [Example 181, 4-(4-Bromo-1-oxoisoindolin-2-yl)-N-(3-methoxy-4-methylphenyl)piperidine-1-carboxamide]",1000 to 10000 nM
5,"COc1cc(NC(=O)[C@H]2CC[C@@H](N3Cc4c(ccc(CN)c4C)NC3=O)CC2)ccc1C [Example 57, (1s,4s)-4-(6-(Aminomethyl)-5-methyl-2-oxo-1,2-dihydroquinazolin-3(4H)-yl)-N-(3-methoxy-4-methylphenyl)cyclohexanecarboxamide]",1000 to 10000 nM
6,"COc1cc(NC(=O)[C@H]2CC[C@@H](N3Cc4c(C)cc(CO)cc4NC3=O)CC2)ccc1C [Example 81, (1s,4s)-4-(7-(hydroxymethyl)-5-methyl-2-oxo-1,2-dihydroquinazolin-3(4H)-yl)-N-(3-methoxy-4-methylphenyl)cyclohexanecarboxamide]",< 100 nM
7,"COc1cc(NC(=O)[C@H]2CC[C@@H](N3Cc4c(ccnc4Br)C3=O)CC2)ccc1C [Example 176, (1s,4s)-4-(4-Bromo-1-oxo-1H-pyrrolo[3,4-c]pyridin-2(3H)-yl)-N-(3-methoxy-4-methylphenyl)cyclohexanecarboxamide]",100 to 1000 nM
8,"COc1cc(NC(=O)[C@H]2CC[C@@H](N3Cc4c(ccc(N)c4C)NC3=O)CC2)ccc1C [Example 46, (1s,4s)-4-(6-Amino-5-methyl-2-oxo-1,2-dihydroquinazolin-3(4H)-yl)-N-(3-methoxy-4-methylphenyl)cyclohexanecarboxamide]",1000 to 10000 nM
9,"COc1cc(NC(=O)[C@@H]2CC[C@H](N3Cc4ccccc4NC3=O)C2)ccc1C [Example 65, (1R,3S)—N-(3-methoxy-4-methylphenyl)-3-(2-oxo-1,2-dihydroquinazolin-3(4H)-yl)cyclopentanecarboxamide]",1000 to 10000 nM
10,"CCc1cccc2c1CN([C@H]1CC[C@@H](C(=O)Nc3ccc(C)c(OC)c3)CC1)C(=O)N2 [Example 72, (1s,4s)-4-(5-ethyl-2-oxo-1,2-dihydroquinazolin-3(4H)-yl)-N-(3-methoxy-4-methylphenyl)cyclohexanecarboxamide]",100 to 1000 nM
11,"Cc1ccc(NC(=O)[C@H]2CC[C@@H](N3Cc4c(C)cccc4C3=O)CC2)cc1C [Example 236, (1s,4s)-N-(3,4-Dimethylphenyl)-4-(4-methyl-1-oxoisoindolin-2-yl)cyclohexanecarboxamide]",1000 to 10000 nM
12,"Cc1cccc2c1CN([C@H]1CC[C@@H](C(=O)Nc3nc4ccccc4[nH]3)CC1)C2=O [Example 274, (1s,4s)-N-(1H-benzo[d]imidazol-2-yl)-4-(4-methyl-1-oxoisoindolin-2-yl)cyclohexanecarboxamide]",100 to 1000 nM
13,"Cc1cccc2c1CN([C@H]1CC[C@@H](C(=O)Nc3ccc4ncccc4c3)CC1)C2=O [Example 228, (1s,4s)-4-(4-Methyl-1-oxoisoindolin-2-yl)-N-(quinolin-6-yl)cyclohexanecarboxamide]",1000 to 10000 nM

# Same assay, conditions: OGG1/APEX IC50, 1 nM OGG1+2 nM APEX+6 nM dsDNA (8-oxo-dG substrate); pH 7.5; RT 40 min
row,IC50,Compound
1,< 100 nM,"COc1cc(NC(=O)[C@H]2CC[C@@H](N3Cc4c(C)cc(N)cc4C3=O)CC2)ccc1C [Example 192, (1s,4s)-4-(6-Amino-4-methyl-1-oxoisoindolin-2-yl)-N-(3-methoxy-4-methylphenyl)cyclohexanecarboxamide]"

# — patent US20260317356A1, “SMALL MOLECULE MODULATORS OF OGG1” (AZKARRA THERAPEUTICS, INC., priority 2023, published 2026)
